Data reported in patent publication US10463644B2, “Uses of sesquiterpene lactone compounds and their derivatives in drugs preparation” (ACCENDATECH, priority 2013, dated 2019).
Where two headings read alike, the source gives them in different places.

What was measured:
[1] = tested on: IL-1β secreted by synoviocyte; assay: Content of IL-1β in culture supernatant of synoviocyte of RA model rats given test compound; format: in vivo; conditions: rat RA model, dose 30 mg/kg.2d; normal control 0.16 ± 0.034, NaCl 0.49 ± 0.136
Method in brief: (§1)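 Rat RA model; dosing 30 mg/kg.2d; normal and NaCl control groups. Synoviocyte culture supernatant collected; TNF-α and PGE2 measured by one established method, IL-1β by a separate method.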

[2] = tested on: PGE2 secreted by synoviocyte; assay: Content of PGE2 in culture supernatant of synoviocyte of RA model rats given test compound; format: in vivo; conditions: rat RA model, dose 30 mg/kg.2d; normal control 8.34 ± 1.29, NaCl 32.44 ± 10.32
Method in brief: as §1

cancer stem cells = assay: Survival rate of cancer stem cells after test compound is added (flow cytometry, Annexin V-FITC/PI, clinical specimen); format: cell-based, patient; conditions: Homo sapiens, 18 h
Method in brief: (§2)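 Mononuclear cells from fresh or cryopreserved clinical samples, isolated by Ficoll gradient and held in serum-free IMDM (1×10^6/mL), received compound for 18 h. After labelling with marker antibodies (CD34+CD38+ for AML), Annexin V-FITC and PI staining was analysed by flow cytometry.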

cancer cells = assay: Survival rate of cancer cells after test compound is added (flow cytometry, Annexin V-FITC/PI, clinical specimen); format: cell-based, patient; conditions: Homo sapiens, 18 h, read-out: Survival rate (%) All cells (Stem cells and ordinary cells)
Method in brief: as §2

normal cells = assay: Survival rate of normal cells after test compound is added (flow cytometry, Annexin V-FITC/PI); format: cell-based; conditions: 18 h
Method in brief: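 Patient specimens (e.g. AML, CD34+/CD38+ stem-cell marker) separated on Ficoll; mononuclear cells at 1×10^6/mL in serum-free IMDM treated 18 h with compound. Cells stained for stem-cell markers, then Annexin V-FITC/PI, and apoptosis measured by flow cytometry within one hour.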

[3] = Head and neck squamous cell carcinomas
[4] = read-out: Survival rate (%) All cells (Stem cells and ordinary cells)
[5] = read-out: Survival rate (%) Stem cells

CN(C)C[C@@H]1C(=O)O[C@H]2[C@H]1CCC1(CC1)[C@@H]1CCC3(CC3)[C@H]21 [Compound 27]
82%: viability at 20 µM (cancer stem cells; CLL) | viability at 10 µM (cancer stem cells; Children hepatoblastoma) | viability at 10 µM (cancer stem cells; Colon adenocarcinoma) | viability at 10 µM (cancer stem cells; Lung adenocarcinoma) | viability at 10 µM (cancer stem cells; Malignant melanoma) | viability at 10 µM (cancer stem cells; Nasopharynx cancer) | viability at 20 µM (cancer cells; Glioma)
75%: viability at 20 µM (cancer stem cells; Gastric cancer) | viability at 20 µM (cancer stem cells; Glioma) | viability at 20 µM (cancer stem cells; [3])
92%: viability at 10 µM (cancer cells; Laryngeal cancer) | viability at 20 µM (cancer cells; Pancreatic cancer)
90%: viability at 10 µM (cancer cells; AML) | viability at 10 µM (cancer cells; Gastrointestinal tumor) | viability at 10 µM (cancer cells; Liver cancer)
85%: viability at 10 µM (cancer stem cells; Colorectal cancer) | viability at 10 µM (cancer stem cells; Laryngeal cancer) | viability at 10 µM (cancer stem cells; Retinoblastoma) | viability at 10 µM (cancer stem cells; Skin cancer) | viability at 20 µM (cancer cells; Breast cancer) | viability at 20 µM (cancer cells; Malignant melanoma) | viability at 20 µM (cancer cells; Nasopharynx cancer)
91%: viability at 10 µM (cancer cells; Brain glioma) | viability at 10 µM (cancer cells; Malignant melanoma) | viability at 10 µM (cancer cells; Nasopharynx cancer) | viability at 10 µM (cancer cells; Prostate cancer) | viability at 10 µM (normal cells; [4])
89%: viability at 10 µM (cancer cells; Colon adenocarcinoma) | viability at 20 µM (cancer cells; Laryngeal cancer) | viability at 10 µM (cancer cells; Lung adenocarcinoma) | viability at 20 µM (normal cells; [4])
87%: viability at 10 µM (cancer stem cells; AML) | viability at 10 µM (cancer stem cells; Brain tumor) | viability at 10 µM (cancer stem cells; CLL) | viability at 10 µM (cancer stem cells; CML) | viability at 20 µM (cancer cells; Brain tumor) | viability at 20 µM (cancer cells; CML) | viability at 20 µM (cancer cells; Children hepatoblastoma) | viability at 20 µM (cancer cells; Colon adenocarcinoma) | viability at 10 µM (cancer cells; Gastric cancer) | viability at 10 µM (cancer cells; [3])
0.41 ± 0.047 ng/mL: Content of IL-1β in culture supernatant of synoviocyte (x ± s) [1]
74%: viability at 20 µM (cancer stem cells; Malignant melanoma) | viability at 20 µM (cancer stem cells; Nasopharynx cancer) | viability at 20 µM (cancer stem cells; Skin cancer)
78%: viability at 20 µM (cancer stem cells; Brain glioma) | viability at 20 µM (cancer stem cells; Colon adenocarcinoma) | viability at 20 µM (cancer stem cells; Pancreatic cancer) | viability at 20 µM (cancer stem cells; Prostate cancer)
83%: viability at 10 µM (cancer stem cells; Ovarian cancer) | viability at 20 µM (cancer cells; Gastric cancer) | viability at 20 µM (cancer cells; [3])
81%: viability at 10 µM (cancer stem cells; Gastric cancer) | viability at 10 µM (cancer stem cells; [3]) | viability at 20 µM (cancer cells; Lung cancer) | viability at 20 µM (cancer cells; Skin cancer) | viability at 20 µM (normal cells; [5])
79%: viability at 20 µM (cancer stem cells; Children hepatoblastoma) | viability at 20 µM (cancer stem cells; Colorectal cancer) | viability at 10 µM (cancer stem cells; Lung cancer)
77%: viability at 20 µM (cancer stem cells; AML) | viability at 20 µM (cancer stem cells; Gastrointestinal tumor) | viability at 20 µM (cancer stem cells; Laryngeal cancer) | viability at 20 µM (cancer stem cells; Liver cancer) | viability at 20 µM (cancer stem cells; Ovarian cancer)
84%: viability at 10 µM (cancer stem cells; Brain glioma) | viability at 10 µM (cancer stem cells; Breast cancer) | viability at 10 µM (cancer stem cells; Prostate cancer) | viability at 20 µM (cancer cells; Ovarian cancer)
93%: viability at 10 µM (cancer cells; CLL) | viability at 10 µM (cancer cells; Colorectal cancer) | viability at 10 µM (cancer cells; Pancreatic cancer)
94%: viability at 10 µM (cancer cells; Brain tumor) | viability at 10 µM (cancer cells; CML) | viability at 10 µM (cancer cells; Retinoblastoma) | viability at 10 µM (cancer cells; Skin cancer)
72%: viability at 20 µM (cancer stem cells; Lung cancer)
80%: viability at 10 µM (cancer stem cells; Glioma) | viability at 20 µM (cancer stem cells; Retinoblastoma)
88%: viability at 20 µM (cancer cells; Brain glioma) | viability at 10 µM (cancer cells; Breast cancer) | viability at 20 µM (cancer cells; CLL) | viability at 10 µM (cancer cells; Children hepatoblastoma) | viability at 10 µM (cancer cells; Glioma) | viability at 10 µM (cancer cells; Lung cancer) | viability at 10 µM (cancer cells; Ovarian cancer) | viability at 20 µM (cancer cells; Prostate cancer) | viability at 10 µM (normal cells; [5])
86%: viability at 10 µM (cancer stem cells; Gastrointestinal tumor) | viability at 10 µM (cancer stem cells; Liver cancer) | viability at 10 µM (cancer stem cells; Pancreatic cancer) | viability at 20 µM (cancer cells; AML) | viability at 20 µM (cancer cells; Colorectal cancer) | viability at 20 µM (cancer cells; Gastrointestinal tumor) | viability at 20 µM (cancer cells; Liver cancer) | viability at 20 µM (cancer cells; Lung adenocarcinoma) | viability at 20 µM (cancer cells; Retinoblastoma)
76%: viability at 20 µM (cancer stem cells; Brain tumor) | viability at 20 µM (cancer stem cells; Breast cancer) | viability at 20 µM (cancer stem cells; CML) | viability at 20 µM (cancer stem cells; Lung adenocarcinoma)
24.75 ± 2.66 ng/mL: Content of PGE2 in culture supernatant of synoviocyte (x ± s) [2]
